One test concerns MCF7. As to the kind of experiment: Antiproliferative activity against human MCF7 cells assessed as cell viability after 72 hrs by MTT assay. It is filed as functional, cell-based. Conditions: MCF7, 72 h. For orientation: Formazan colour is commonly taken as a measure of viable cells.
The target of test [1] is T1, Heat shock protein HSP 90-alpha (Homo sapiens, UniProt P07900). As to the kind of experiment: Displacement of FITC-labeled geldanamycin from human recombinant HSP90alpha after 24 hrs by fluorescence displacement assay.
Test [2] addresses T1, Heat shock protein HSP 90-alpha. As to the kind of experiment: Inhibition of Hsp90alpha in human MCF7 assessed as induction of proteasomal ER2alpha protein degradation at 50 uM after 24 hrs by Western blot analysis relative to control. For orientation: In western blotting, separated proteins are transferred to a membrane and probed.
For test [3] the target is unchanged. Description: Inhibition of Hsp90alpha in human MCF7 assessed as induction of proteasomal ER2alpha protein degradation at 100 uM after 24 hrs by Western blot analysis relative to control.

Active and inactive are the calls of the source. No cut-off for these calls is given here.

The results in this text go back to ChEMBL document CHEMBL1828550, “Lead identification of β-lactam and related imine inhibitors of the molecular chaperone heat shock protein 90” (Bioorg Med Chem, 2011).

Consider `CCc1cc([C@@H]2CC(=O)N2c2ccc(OC)cc2)c(O)cc1O`, for which the figures for the half-inhibitory concentration (IC50) (with MCF7; in test [1]) were 52 µM and more than 200 µM, respectively.

On to `CCc1cc(/C=N/c2ccc3c(c2)OCCO3)c(O)cc1O`, for which the half-inhibitory concentration (IC50) (usually the concentration that gives 50% inhibition) in the test on MCF7 is more than 100 µM; in test [1] it was 14.5 µM. Also, in test [2], the outcome was Active.

As for `CCc1cc(/C=N/c2ccc3c(c2)OCO3)c(O)cc1O`, the IC50 was more than 100 µM with MCF7 and 22.1 µM in test [1]. The outcome in test [2] was Active.

For the compound `CCc1cc([C@@H]2CC(=O)N2c2ccc3c(c2)OCO3)c(O)cc1O`, the IC50 in the test with MCF7 is 31 µM; in test [1], more than 200 µM.

`COc1ccc([C@@H]2CC(=O)N2c2ccc3c(c2)OCCO3)c(OC)c1`: the IC50 in the test on MCF7 is 53 µM; in test [1], more than 200 µM.

`CCc1cc([C@@H]2CC(=O)N2c2ccc3c(c2)OCCO3)c(O)cc1O`: the outcome in test [3] and in test [2] was Active. Besides, the figures for the concentration for half-maximal inhibition (IC50) (with MCF7; in test [1]) were 48 µM and 5.6 µM, respectively.

Consider `COc1ccc(OC)c([C@@H]2CC(=O)N2c2ccc3c(c2)OCCO3)c1`, for which the values for the half-maximal inhibitory concentration (IC50) (with MCF7; in test [1]) were 54 µM and more than 200 µM, respectively.

For `CCc1cc([C@@H]2CC(=O)N2c2cc(OC)c(OC)c(OC)c2)c(O)cc1O`, the IC50 is 31 µM with MCF7 and more than 200 µM in test [1].

For `C=CCNC1=C2C[C@@H](C)C[C@H](OC)[C@H](O)[C@@H](C)/C=C(\C)[C@H](OC(N)=O)[C@@H](OC)/C=C\C=C(/C)C(=O)NC(=CC1=O)C2=O` [TANESPIMYCIN], the IC50 in the test with MCF7 was determined as 0.09 µM.

With `O=C1C[C@@H](c2ccc(O)cc2O)N1c1ccc2c(c1)OCCO2`, the figures for the concentration for half-maximal inhibition (IC50) (with MCF7; in test [1]) were 23 µM and more than 200 µM, respectively.

Regarding `CCc1cc([C@@H]2[C@@H](c3ccccc3)C(=O)N2c2ccc3c(c2)OCCO3)c(O)cc1O`, the IC50 with MCF7 was more than 100 µM; in test [1], more than 200 µM.
